Laboratory results as given in patent US10477863B2, “Use of herbicidal compositions for controlling unwanted vegetation” (BASF SE, priority 2015, dated 2019).

Test system: Amaranthus palmeri
Test: Field test, post-emergence spray: visual injury of Palmer amaranth rated 0 to 100
Type: in vivo
Settings: 3 days after treatment, 0.25% non-ionic surfactant
Description: Dicamba was applied as Engenia™ herbicide [BAPMA salt-(bis(3-aminopropyl)methylamine))], while 2,4-DB was applied as the commercially available Butyrac® 200 (dimethylamine salt). Herbicides were applied at an appropriate weight of each product dissolved in 1 liter of water. All herbicide treatments were applied with 0.25% by volume of a non-ionic surfactant (Induce®; an adjuvant composition consisting of alkyl aryl polyoxyalkane ethers, alkanolamides, dimethyl siloxane and free fatty acids). The spray solution was applied by a CO2 powered backpack sprayer delivering the spray solution at a rate of 185 liter/ha. The spray solution was applied to a field naturally populated with Palmer amaranth (Amaranthus palmeri) with an average height of 4-6 inches in height, however, plants both larger and smaller plants were in the field at the time of application as well. Palmer amaranth was assessed for visual injury 3 days after treatment and injury was rated on a scale from 0 to 100, whereby 0 equals no herbicidal response and 100 equals complete control of the Palmer amaranth.

SMILES | herbicidal activity against Amaranthus palmeri (% control), found (2,4-DB 17.5 g/ha a.i., Exp. No. 2) [% control] | herbicidal activity against Amaranthus palmeri (% control), found (2,4-DB 35 g/ha a.i., Exp. No. 3) [% control] | herbicidal activity against Amaranthus palmeri (% control), found (2,4-DB 52.5 g/ha a.i., Exp. No. 4) [% control] | herbicidal activity against Amaranthus palmeri (% control), found (dicamba 420 g/ha a.i., Exp. No. 1) [% control]
O=C(O)CCCOc1ccc(Cl)cc1Cl [2,4-DB, 4-(2,4-Dichlorophenoxy)butanoic acid] | 0 | 5 | 15 | 
COc1c(Cl)ccc(Cl)c1C(=O)O [dicamba, 3,6-Dichloro-2-methoxybenzoic acid] |  |  |  | 60
